Data from US20100284912A1, “HOMOGENIZATION OF A RADIOPHARMACEUTICAL USING SONIFICATION AND/OR ROTOR-STATOR TECHNOLOGY TO PRODUCE A HOMOGENOUS SUSPENSION, EMULSION, MIXTURE OR SOLID SUSPENSION OF IMMISCIBLE INGREDIENTS” (BRACCO DIAGNOSTICS INC., priority 2007, published 2010).

Assay: Thermo Gravimetric Analyzer (TGA) % volatiles (water)
Format: physicochemical
Settings: 10° C./min to 110° C., isothermal hold 60 min
Method: 10 mg was collected for each sample. A heating ramp of 10° C./min from room temperature to 110° C. with an isothermal hold at 110° C. for 60 min was used in the analysis. Table 4 below depicts the % volatiles (water) which were found versus the theoretical values.

SMILES	% Volatiles Found [%]
O=P([O-])([O-])O.[K+].[K+] [Potassium Phosphate Dibasic]	2.7
O=S([O-])([O-])=S.[Na+].[Na+] [Sodium Thiosulfate]	33
